Reference: the SangsterLogP compilation

Structure (SMILES)	logP
CCC(=O)C(CCN(C)C)(c1ccccc1)C1CCCC1 (stereo not drawn)	4.53
CCC(=O)C(CCN(C)C)(c1ccccc1)c1ccc(Br)cc1 (stereo not drawn)	5.23
CCC(=O)C(CCN(C)C)(c1ccccc1)C1CCCCCC1 (stereo not drawn)	5.91
CCC(=O)C(CCN(C)C)(c1ccc(F)cc1)c1ccc(F)cc1	4.84
CCC(=O)C(CCN(C)C)(c1ccccc1)c1cccc(F)c1 (stereo not drawn)	4.17
CCC(=O)C(CCN(C)C)(c1ccccc1)c1ccc(O)cc1 (stereo not drawn)	3.45
CCC(=O)C(CCN(C)C)(c1ccccc1)c1ccc(SC)cc1 (stereo not drawn)	4.96
CCC(=O)C(CCN(C)C)(c1ccccc1)C1CCCCC1 (stereo not drawn)	5.13
CCC(=O)C(CCN(C)C)(c1ccccc1)c1ccc(F)cc1 (stereo not drawn)	4.19
CCC(=O)C(CCN(C)C)(c1ccccc1)c1ccccc1	4.15
CCC(=O)C(CCN(C)C)(c1ccccc1)c1ccc(OC)cc1 (stereo not drawn)	4.28
CCC(=O)C(CCN(C)C)(c1ccccc1)c1ccc(Cl)cc1 (stereo not drawn)	4.9
CCC(=O)C(CCN(C)C)(c1ccccc1)c1ccc(C)cc1 (stereo not drawn)	4.93
